The numbers were not newly measured in patent US20260325482A1, “TASIMELTEON FOR USE IN THE TREATMENT OF DELAYED SLEEP-WAKE PHASE DISORDER” (VANDA PHARMACEUTICALS INC., priority 2023, published 2026), which cites them from elsewhere.

SMILES strings stand for the structures.

One series relates to MT2 receptor. The following applies: MT2 receptor vs MT1 receptor.
The conditions of series [1]: high-calorie/high-fat meals.
For series [2] the following is noted: healthy volunteers, participants with primary insomnia, Non-24, and pediatric participants with SMS.
Another series concerns Non-24. Conditions: daily dose of 20 mg administered once, before bedtime.
The test system of a further series is SMS. Conditions: daily dose of 0.7 mg/kg once daily; patients having a body mass of 28 kg or less.

As for `CCC(=O)NC[C@@H]1C[C@H]1c1cccc2c1CCO2` [tasimelteon], the “affinity for the MT2 receptor compared with the MT1 receptor” value in the series with MT2 receptor is “greater affinity for the MT2 receptor than the MT1 receptor”. Moreover, the linearity of pharmacokinetics result (doses ranging from 3 mg to 300 mg) was “linear”. For the setting “oral”, the absolute bioavailability was 38%. For the same molecule, in series [1], the Cmax with food result was “significantly lower”, the Tmax with food result is reported as “delay” and the “extent of absorption with food” value is “not significantly affected”. Besides, the safety and tolerability result in series [2] was “safe and well-tolerated”. Further, in the series on Non-24, the “effectiveness in treating Non-24” value is given as “effective”. Also, in the series with SMS, the “effectiveness in treating SMS” value is “effective”.
